Results reported in patent US12152010B2, “Preparation method for photo-activatable aggregation-induced emission probe with in-situ generation capability” (South China University of Technology, priority 2018, dated 2024).

Experiments:
HeLa cells [1] = assay: Photo-activatable fluorescence imaging under 405 nm laser in HeLa cells; assay type: cell-based; conditions: in-situ generated compound
MCF-7 cells = assay: Photo-activatable fluorescence imaging under 405 nm laser in MCF-7 cells; assay type: cell-based; conditions: in-situ generated compound
[2] = test system: HeLa cells or MCF-7 cells; assay: Co-dyeing experiments with commercial organelle dyes; assay type: cell-based; conditions: co-dyeing with Nile Red, BODIPY493/503 or LysoTracker Red
HeLa cells [3] = assay: Photo-controlled high-spatiotemporal-resolution imaging, 780 nm two-photon laser, multicellular environment; assay type: cell-based; conditions: under photo-control
From the text: In-situ generated compound III could be used for photo-controlled high-spatiotemporal-resolution imaging. […] The photo-controlled high-spatiotemporal-resolution imaging capability of in-situ generated compound III was particularly useful for monitoring the movement of organelles and studying the physiological functions of organelles in complex physiological environments.

[4] = Quantum yield, fluorescence lifetime, absorption and emission in tetrahydrofuran solution and solid (thin film) state; assay type: physicochemical; conditions: for Increase in fluorescence lifetime / Increase in quantum yield: thin film state relative to tetrahydrofuran solution
From the text: By measuring the quantum yield and fluorescence lifetime of compounds IV-1 (method 2-compound IV-1), IV-2 (method 2-compound IV-2) and IV-3 (method 2-compound IV-3) in tetrahydrofuran solution and solid state (thin film state)) (Table 1), the following results were found relative to the cases in the tetrahydrofuran solution: compound IV-1 in the thin film state increased by 94.4 times in the quantum yield, and increased by 6.0 times in the fluorescence lifetime; compound IV-2 in the thin film state increased by 33.4 times in the quantum yield, and increased by 5.2 times in the fluorescence lifetime; compound IV-3 in the thin film state increased by 25.8 times in the quantum yield, and increased by 4.1 times in the fluorescence lifetime; therefore, the aggregation-induced emission property of compound IV was confirmed. […] The in-situ compounds IV-1 to IV-3 also had the photophysical properties in Table 1.

[5] = Fluorescence emission in tetrahydrofuran/water or tetrahydrofuran/toluene mixed solutions (aggregation-induced emission); assay type: physicochemical; conditions: tetrahydrofuran:water (IV-1 509 nm, IV-2 570 nm) or tetrahydrofuran:toluene (IV-3 532 nm), 10^−5 mol/L
From the text: (§1) Mixing tetrahydrofuran and water according to different volume ratios (tetrahydrofuran:water=100:0, 90:10, 80:20, 70:30, 60:40, 50:50, 40:60, 30:70, 20:80, 10:90, 8:92, 6:94, 4:96, 2:98, 1:99) to form mixed solutions with different water contents; dissolving compound IV-1 (i.e., method 2-compound IV-1) into these mixed solutions to make the concentration of the compound at 10′ mol/L, and then detecting the fluorescence emission spectrum, with the results as shown in FIG. 1.
as §1, with “IV-2” for “IV-1”, “IV-2)” for “IV-1)”, “[…]” for “10′”, “2.” for “1.”
The in-situ generated compound IV-2 (in-situ compound IV-2) had the same photophysical properties as method 2-compound IV-2.
Mixing tetrahydrofuran and toluene according to different volume ratios (tetrahydrofuran:toluene=100:0, 90:10, 80:20, 70:30, 60:40, 50:50, 40:60, 30:70, 20:80, 10:90, 5:95, 1:99) to form mixed solutions with different toluene contents; dissolving compound IV-3 (i.e., method 2-compound IV-3) into these mixed solutions to make the concentration of the compound at […], and then detecting the fluorescence emission spectrum, with the results as shown in FIG. 3.
The in-situ generated compound IV-3 (in-situ compound IV-3) had the same photophysical properties as method 2-compound IV-3.

[6] = tetrahydrofuran solution state (10^−5 mol/L)

| SMILES | Fluorescence intensity increase (HeLa cells [1]; irradiation time 10 min) | Fluorescence intensity increase (MCF-7 cells; irradiation time 10 min) | Organelle specificity of photo-activatable fluorescence imaging [2] | Photo-controlled sequential activation of organelles in different cells (HeLa cells [3]) | Fluorescence intensity increase (HeLa cells [1]; scanning time 50 s) | Fluorescence intensity increase (MCF-7 cells; scanning time 50 s) | Emission wavelength ([4]; solid state) [nm] | Fluorescence lifetime ([4]; solid state) [ns] | Quantum yield ([4]; solid state) [%] | Absorption wavelength [4, 6] [nm] | Emission wavelength [4, 6] [nm] | Fluorescence lifetime [4, 6] [ns] | Quantum yield [4, 6] [%] | Increase in fluorescence lifetime [4] [times] | Increase in quantum yield [4] [times] | Ketoluminescence behaviour with increasing poor-solvent content [5] |
| --- | --- | --- | --- | --- | --- | --- | --- | --- | --- | --- | --- | --- | --- | --- | --- | --- |
| COc1ccc(O)c(C2Nc3ccccc3S2)c1 (centres unmarked) [Compound III-2, 2-(2,3-dihydrobenzo[d]thiazol-2-yl)-4-methoxyphenol] | approximately 53 times of the initial value | ~18 times of the initial value | lipid droplet specific photo-activatable fluorescence imaging | could sequentially activate lipid droplets in different cells | – | – | – | – | – | – | – | – | – | – | – | – |
| Oc1ccc(CN2CCOCC2)cc1C1Nc2ccccc2S1 (centres unmarked) [Compound III-3, 2-(2,3-dihydrobenzo[d]thiazol-2-yl)-4-(morpholinomethyl)phenol] | – | – | lysosomal specific photo-activatable fluorescence imaging | could sequentially activate lysosomes in different cells | approximately 6.2 times of the initial value | ~4.5 times of the initial value | – | – | – | – | – | – | – | – | – | – |
| Oc1ccc(CN2CCOCC2)cc1-c1nc2ccccc2s1 [Compound IV-3, 2-(benzo[d]thiazol-2-yl)-4-(morpholinomethyl)phenol] | – | – | – | – | – | – | 532 | 6.39 | 28.4 | 341 | 445 | 1.56 | 1.1 | 4.1 | 25.8 | showing the aggregation-induced emission property |
| Oc1ccccc1C1Nc2ccccc2S1 (centres unmarked) [Compound III-1, 2-(2,3-dihydrobenzo[d]thiazol-2-yl)phenol] | approximately 5.5 times of the initial value | ~9.0 times of the initial value | lipid droplet specific photo-activatable fluorescence imaging | – | – | – | – | – | – | – | – | – | – | – | – | – |
| Oc1ccccc1-c1nc2ccccc2s1 [Compound IV-1, 2-(benzo[d]thiazol-2-yl)phenol] | – | – | – | – | – | – | 509 | 4.96 | 66.1 | 334 | 452 | 0.83 | 0.7 | 6.0 | 94.4 | showing the aggregation-induced emission property |
| COc1ccc(O)c(-c2nc3ccccc3s2)c1 [Compound IV-2, 2-(benzo[d]thiazol-2-yl)-4-methoxyphenol] | – | – | – | – | – | – | 570 | 4.88 | 40.1 | 362 | 402 | 0.94 | 1.2 | 5.2 | 33.4 | showing the aggregation-induced emission property |
